Measurements: patent US8263606B2 (Xenon Pharmaceuticals Inc., priority 2008, dated 2012)

Columns and labels:
[1] = system: sodium channel; test: Guanidine influx assay (14C-guanidine radiotracer flux, in vitro); assay type: cell-based, human or rat; details: guanidine influx assay using a known cell line that expresses a sodium channel; activity level class
How it was run: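 Human or rat sodium channels stably expressed in endogenous or recombinant cells, plated ~100,000 cells/well for 20-24 h at 37 °C. Cells were treated with test agent in low-sodium choline HEPES saline plus aconitine and 14C-guanidine at ambient temperature, washed, and counted by scintillation; IC50 from 4-parameter logistic fit.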

[2] = target: CYP3A4 (Homo sapiens, UniProt P08684); test: Cytochrome P450 (CYP450) Inhibition Assay, CYP3A4 (Vivid fluorescence, BOMCC substrate); details: human, P450 Baculosomes (recombinant CYP3A4), probe BOMCC (Vivid substrate)
Sequence of CYP3A4 (P08684 whole entry): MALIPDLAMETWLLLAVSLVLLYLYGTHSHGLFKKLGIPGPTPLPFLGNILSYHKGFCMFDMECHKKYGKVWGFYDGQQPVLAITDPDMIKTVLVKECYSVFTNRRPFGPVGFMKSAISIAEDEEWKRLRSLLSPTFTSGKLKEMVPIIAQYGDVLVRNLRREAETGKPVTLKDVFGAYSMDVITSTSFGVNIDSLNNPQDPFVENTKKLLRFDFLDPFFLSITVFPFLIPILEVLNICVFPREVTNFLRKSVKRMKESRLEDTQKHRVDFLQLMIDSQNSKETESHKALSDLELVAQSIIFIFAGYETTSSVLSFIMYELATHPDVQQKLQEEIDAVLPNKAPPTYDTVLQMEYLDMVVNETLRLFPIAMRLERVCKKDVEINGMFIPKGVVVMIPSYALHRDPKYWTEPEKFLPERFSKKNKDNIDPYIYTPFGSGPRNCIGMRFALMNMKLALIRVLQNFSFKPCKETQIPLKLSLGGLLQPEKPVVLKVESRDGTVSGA

IC50 [1] [nM] | melting point [°C] | inhibition at 10 µM [2] [%] | SMILES
1000 to 10000 | 151 to 153 | < 50 | COc1cc2c(cc1C)C1(CO2)C(=O)N(C[C@H]2CCCO2)c2ccccc21 (stereo partly drawn) [Example 4.61, 6-methoxy-5-methyl-1′-[(2R)-tetrahydrofuran-2-ylmethyl]spiro[1-benzofuran-3,3′-indol]-2′(1′H)-one]
1000 to 10000 | 180 to 182 | > 50 | COc1cc2c(cc1C)C1(CO2)C(=O)N(CC2CCCCO2)c2ccccc21 (stereo not drawn) [Example 4.63, 6-methoxy-5-methyl-1′-(tetrahydro-2H-pyran-2-ylmethyl)spiro[1-benzofuran-3,3′-indol]-2′(1′H)-one]
100 to 1000 | 131 to 133 | < 50 | COc1cc2c(cc1F)C1(CO2)C(=O)N(CC2CCCCO2)c2ccccc21 (stereo not drawn) [Example 4.64, 5-fluoro-6-methoxy-1′-(tetrahydro-2H-pyran-2-ylmethyl)spiro[1-benzofuran-3,3′-indol]-2′(1′H)-one]
100 to 1000 | 142 to 144 | < 50 | COc1cc2c(cc1F)C1(CO2)C(=O)N(Cc2ccccn2)c2ccccc21 (stereo not drawn) [Example 4.65, 5-fluoro-6-methoxy-1′-(pyridin-2-ylmethyl)spiro[1-benzofuran-3,3′-indol]-2′(1′H)-one]
100 to 1000 | 106 to 116 | < 50 | COc1cc2c(cc1F)C1(CO2)C(=O)N(C[C@H]2CCCO2)c2ccccc21 (stereo partly drawn) [Example 4.66, 5-fluoro-6-methoxy-1′-[(2R)-tetrahydrofuran-2-ylmethyl]spiro[1-benzofuran-3,3′-indol]-2′(1′H)-one]
100 to 1000 | 160 to 162 | < 50 | COc1cc2c(cc1F)C1(CO2)C(=O)N(Cc2ccccc2)c2ccccc21 (stereo not drawn) [Example 4.67, 1′-benzyl-5-fluoro-6-methoxyspiro[1-benzofuran-3,3′-indol]-2′(1′H)-one]
1000 to 10000 | 121 to 130 | > 50 | O=C1CC[C@@H](CN2C(=O)C3(COc4cc5c(cc43)OCO5)c3ccccc32)N1 (stereo partly drawn) [Example 4.72, 1′-{[(2S)-5-oxopyrrolidin-2-yl]methyl}spiro[furo[2,3-f][1,3]benzodioxole-7,3′-indol]-2′(1′H)-one]
1 to 100 | 170 to 172 | > 50 | N#CCN1C(=O)C2(COc3cc4c(cc32)OCO4)c2ccccc21 (stereo not drawn) [Example 4.73, (2′-oxospiro[furo[2,3-f][1,3]benzodioxole-7,3′-indol]-1′(2′H)-yl)acetonitrile]
100 to 1000 | 95 to 98 | > 50 | O=C1N(Cc2ccc(C(F)(F)F)o2)c2c(C(F)(F)F)cccc2C12COc1cc3c(cc12)OCO3 (stereo not drawn) [Example 4.74, 7′-(trifluoromethyl)-1′-{[5-(trifluoromethyl)-2-furyl]methyl}spiro[furo[2,3-f][1,3]benzodioxole-7,3′-indol]-2′(1′H)-one]
100 to 1000 | 165 to 166 | > 50 | O=C1N(Cc2ccc(Cl)s2)c2c(C(F)(F)F)cccc2C12COc1cc3c(cc12)OCO3 (stereo not drawn) [Example 4.75, 1-[(5-chloro-2-thienyl)methyl]-7′-(trifluoromethyl)spiro[furo[2,3-f][1,3]benzodioxole-7,3′-indol]-2′(1′H)-one]
100 to 1000 | 101 to 103 | > 50 | CC(C)c1ncc(CN2C(=O)C3(COc4cc5c(cc43)OCO5)c3cccc(C(F)(F)F)c32)s1 (stereo not drawn) [Example 4.76, 1′-[(2-isopropyl-1,3-thiazol-5-yl)methyl]-7′-(trifluoromethyl)spiro[furo[2,3-f][1,3]benzodioxole-7,3′-indol]-2′(1′H)-one]
1 to 100 | 75 to 77 | > 50 | CC(C)c1ncc(CN2C(=O)C3(COc4cc5c(cc43)OCO5)c3ccccc32)o1 (stereo not drawn) [Example 4.77, 1′-[(2-isopropyl-1,3-oxazol-5-yl)methyl]spiro[furo[2,3-f][1,3]benzodioxole-7,3′-indol]-2′(1′H)-one]
1 to 100 | 128 to 130 | > 50 | CSc1ccc(CN2C(=O)C3(COc4cc5c(cc43)OCO5)c3ccccc32)cc1 (stereo not drawn) [Example 4.79, 1′-[4-(methylsulfanyl)benzyl]spiro[furo[2,3-f][1,3]benzodioxole-7,3′-indol]-2′(1′H)-one]
1 to 100 | 200 to 202 | > 50 | N#CCCN1C(=O)C2(COc3cc4c(cc32)OCO4)c2ccccc21 (stereo not drawn) [Example 4.80, 3-(2′-oxospiro[furo[2,3-f][1,3]benzodioxole-7,3′-indol]-1′(2′H)-yl)propanenitrile]
1 to 100 | 215 to 217 | > 50 | O=C1N(Cc2cnc(Br)s2)c2ccccc2C12COc1cc3c(cc12)OCO3 (stereo not drawn) [Example 4.81, 1′-[(2-bromo-1,3-thiazol-5-yl)methyl]spiro[furo[2,3-f][1,3]benzodioxole-7,3′-indol]-2′(1′H)-one]
100 to 1000 | 165 to 167 | > 50 | Nc1nc(C(F)(F)F)c(CN2C(=O)C3(COc4cc5c(cc43)OCO5)c3ccccc32)s1 (stereo not drawn) [Example 4.82, 1′-{[2-amino-4-(trifluoromethyl)-1,3-thiazol-5-yl]methyl}spiro[furo[2,3-f][1,3]benzodioxole-7,3′-indol]-2′(1′H)-one]
1000 to 10000 | 132 to 134 | > 50 | COc1cc2c(cc1F)OCC21C(=O)N(Cc2ccc(C(F)(F)F)o2)c2ccccc21 (stereo not drawn) [Example 4.83, 6-fluoro-5-methoxy-1′-{[5-(trifluoromethyl)furan-2-yl]methyl}spiro[1-benzofuran-3,3′-indol]-2′(1′H)-one]
100 to 1000 | 122 to 123 | < 50 | N#CCN1C(=O)C2(COc3cc4c(cc32)OCO4)c2c(Cl)cccc21 (stereo not drawn) [Example 4.84]
100 to 1000 | 230 to 235 | > 50 | Nc1nc(CN2C(=O)C3(COc4cc5c(cc43)OCO5)c3ccccc32)cs1 (stereo not drawn) [Example 4.85, 1′-[(2-amino-1,3-thiazol-4-yl)methyl]spiro[furo[2,3-f][1,3]benzodioxole-7,3′-indol]-2′(1′H)-one]
1 to 100 | 85 to 87 | > 50 | O=C1N(Cc2ccc(Cl)s2)c2cccc(Br)c2C12COc1cc3c(cc12)OCO3 (stereo not drawn) [Example 4.86, 4′-bromo-1′-[1(5-chloro-2-thienyl)methyl]spiro[furo[2,3-f][1,3]benzodioxole-7,3′-indol]-2′(1′H)-one]
1 to 100 | 192 to 193 | > 50 | N#Cc1cccc2c1N(Cc1ccc(Cl)s1)C(=O)C21COc2cc3c(cc21)OCO3 (stereo not drawn) [Example 4.87, 1′-[(5-chloro-2-thienyl)methyl]-2′-oxo-1′,2′-dihydrospiro[furo[2,3-f][1,3]benzodioxole-7,3′-indole]-7′-carbonitrile]
1 to 100 | 162 to 163 | > 50 | CC(C)c1nc(CN2C(=O)C3(COc4cc5c(cc43)OCO5)c3cccc(C#N)c32)cs1 (stereo not drawn) [Example 4.88, 1′-[(2-isopropyl-1,3-thiazol-4-yl)methyl]-2′-oxo-1′,2′-dihydrospiro[furo[2,3-f][1,3]benzodioxole-7,3′-indole]-7′-carbonitrile]
1 to 100 | 167 to 168 | > 50 | O=C1N(Cc2ccc(Cl)s2)c2cccc(Cl)c2C12COc1cc3c(cc12)OCO3 (stereo not drawn) [Example 4.89, 4′-chloro-1′-[(5-chloro-2-thienyl)methyl]spiro[furo[2,3-f][1,3]benzodioxole-7,3′-indol]-2′(1′H)-one]
1 to 100 | 147 to 148 | > 50 | CC(C)c1nc(CN2C(=O)C3(COc4cc5c(cc43)OCO5)c3c(Cl)cccc32)cs1 (stereo not drawn) [Example 4.91, 4′-chloro-1′-[(2-isopropyl-1,3-thiazol-4-yl)methyl]spiro[furo[2,3-f][1,3]benzodioxole-7,3′-indol]-2′(1′H)-one]
100 to 1000 | 164 to 165 | > 50 | CC(C)c1nc(CN2C(=O)C3(COc4cc5c(cc43)OCO5)c3c(-c4ccc(N(C)C)nc4)cccc32)cs1 (stereo not drawn) [Example 4.92, 4′-[6-(dimethylamino)pyridin-3-yl]-1′-{[2-(1-methylethyl)-1,3-thiazol-4-yl]methyl}spiro[furo[2,3-f][1,3]benzodioxole-7,3′-indol]-2′(1′H)-one]
1 to 100 | 188 to 190 | > 50 | O=C1N(Cc2ccccc2CF)c2ccccc2C12COc1cc3c(cc12)OCCO3 (stereo not drawn) [Example 4.93]
1 to 100 | 173 to 178 | > 50 | N#Cc1cccc(CN2C(=O)C3(COc4cc5c(cc43)OCCO5)c3ccccc32)c1 (stereo not drawn) [Example 4.94, 3-[(2′-oxo-2,3-dihydrospiro[furo[2,3-g][1,4]benzodioxine-8,3′-indol]-1′(2′H)-yl)methyl]benzonitrile]
1 to 100 | 161 to 163 | > 50 | COc1cc(CN2C(=O)C3(COc4cc5c(cc43)OCCO5)c3ccccc32)ccc1F (stereo not drawn) [Example 4.95, 1-(4-fluoro-3-methoxybenzyl)-2,3-dihydrospiro[furo[2,3-g][1,4]benzodioxine-8,3′-indol]-2′(1′H)-one]
